Where “and” joins values, the source holds several entries; their conditions need not be identical. Identical values can stand only once. Like-named read-outs stand apart in the source and are kept apart here. Ends that are not written are not given here. Peptide text beside a SMILES is read from it. * marks the point of attachment. Biotin = O=C1N[C@H]2[C@H](CS[C@H]2CCCCC(=O)*)N1 Some results are limits rather than exact numbers.

Consider ten molecules from patent US20080064052A1, “Crystal of a Receptor-Ligand Complex and methods of use” (priority 2006, published 2008).

The target in experiment [1] is T1, mouse EphB4 ectodomain Fc fusion protein (Mus musculus, UniProt P54761).
T1 sequence (P54761 16-539 limits assumed): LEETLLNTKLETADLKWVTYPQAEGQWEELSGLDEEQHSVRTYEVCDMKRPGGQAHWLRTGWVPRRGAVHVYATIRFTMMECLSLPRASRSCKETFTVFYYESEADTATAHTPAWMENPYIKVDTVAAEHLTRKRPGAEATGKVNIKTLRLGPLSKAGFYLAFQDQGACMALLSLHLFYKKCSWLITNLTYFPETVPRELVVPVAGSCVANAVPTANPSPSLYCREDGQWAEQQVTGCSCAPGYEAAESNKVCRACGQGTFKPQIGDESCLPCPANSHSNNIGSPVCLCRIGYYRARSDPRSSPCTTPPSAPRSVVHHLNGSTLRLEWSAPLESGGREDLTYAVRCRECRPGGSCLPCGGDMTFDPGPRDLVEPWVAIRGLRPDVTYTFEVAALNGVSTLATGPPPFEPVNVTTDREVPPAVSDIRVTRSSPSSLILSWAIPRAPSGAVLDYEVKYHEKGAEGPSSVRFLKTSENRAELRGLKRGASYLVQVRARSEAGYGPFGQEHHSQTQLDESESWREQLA
Put plainly: ELISA competition: inhibition of mouse ephrin-B2 alkaline phosphatase (AP) binding to immobilized mouse EphB4 ectodomain Fc. The settings on record: murine receptor; for IC50: IC50 for inhibition of mouse ephrin-B2 AP binding to immobilized mouse EphB4 ectodomain Fc, ELISA binding assay.

The target of experiment [2] is T2, human EphB4 ephrin-binding domain (Homo sapiens, UniProt P54760).
T2 sequence (P54760 17-196): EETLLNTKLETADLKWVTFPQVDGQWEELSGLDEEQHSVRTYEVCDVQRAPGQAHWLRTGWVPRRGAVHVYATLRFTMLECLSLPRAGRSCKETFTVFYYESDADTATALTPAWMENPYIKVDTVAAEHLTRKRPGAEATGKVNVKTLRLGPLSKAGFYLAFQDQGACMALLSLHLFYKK
Put plainly: Isothermal titration calorimetry (ITC) binding to EphB4 (17-196). To be noted: 25° C., 50 mM Tris pH 7.8, 150 mM NaCl. On the procedure: Peptides were dissolved into the same buffer used for the dialysis of EphB4. […] ITC experiments were performed with a Microcal MCS ITC at 25° C. Following an initial injection of 2 μl, titrations were performed by making 20 13 μl injections of peptide into EphB4 in the sample cell to produce an approximate final 2:1 ratio of injectant to sample in the cell. […] Prior to loading the sample cell, EphB4 was centrifuged at 18,000 g for 5 min at 4° C. to remove aggregates and degassed for 5 minutes at room temperature. […] Dilution data were fit to a line and subtracted from the corresponding titration data.

Experiment [3] concerns the target T3, mouse EphB4 ectodomain Fc fusion protein (mouse EphB4-Fc-His, R&D Systems) (mouse, UniProt P54761 16-539).
T3 construct: extracellular domain; also called murine EphB4; not shown: Fc part of a bought fusion protein; His tag of the bought protein
T3 sequence (looked up): T1 sequence (P54761 16-539 limits assumed)
Put plainly: competition ELISA: inhibition of mouse ephrin-B2 AP binding to immobilized mouse EphB4 ectodomain Fc. Here is the method:
The ability of peptides to compete the binding of mouse ephrin-B2 alkaline phosphatase to immobilized mouse EphB4-Fc-His (R&D Systems) was measured by ELISA as previously described (Koolpe et al., 2005).

Experiment [4] concerns the target T4, human EphB4 ephrin-binding domain, EphB4 (17-196) (human, UniProt P54760 17-196).
T4 sequence: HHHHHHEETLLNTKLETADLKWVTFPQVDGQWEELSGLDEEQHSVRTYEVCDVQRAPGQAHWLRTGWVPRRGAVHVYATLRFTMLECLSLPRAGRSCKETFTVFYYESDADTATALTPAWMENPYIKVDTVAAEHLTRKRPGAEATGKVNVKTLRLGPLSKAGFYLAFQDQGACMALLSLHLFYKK
Briefly: ITC at 25 °C, peptide injected into human EphB4 (17-196). Here is the method:
Isothermal titration calorimetry and ELISA experiments: EphB4and ephrin-B2 were either dialyzed or buffer exchanged into 50 mM Tris-Cl (pH 7.8 at 25° C.), 150 mM NaCl, 1 mM CaCl₂, prior to use in calorimetry experiments. Peptides were dissolved into the same buffer used for the dialysis of EphB4. The concentration of EphB4, ephrin-B2 and the peptides was determined by measuring the A₂₈₀ and using the theoretical-extinction coefficient (Gill and von Hippel, 1989). ITC experiments were performed with a Microcal MCS ITC at 25° C. Following an initial injection of 2 μl, titrations were performed by making 20 13 μl injections of peptide into EphB4 in the sample cell to produce an approximate final 2:1 ratio of injectant to sample in the cell. For most titrations the sample cell contained 15 μM EphB4 and the injection syringe contained a 200 μM solution of the peptide. Titrations with ephrin-B2 contained 13 μM EphB4 in the sample cell and 290 μM ephrin-B2 in the syringe. Prior to loading the sample cell, EphB4 was centrifuged at 18,000 g for 5 min at 4° C. to remove aggregates and degassed for 5 minutes at room temperature. Corrections for heats of dilution for the peptides and ephrin-B2 were determined by performing titrations of peptide or ephrin-B2 solutions into buffer. Dilution data were fit to a line and subtracted from the corresponding titration data. Titration data were analyzed using Origin ITC software (Version 5.0, Microcal Software Inc.) and curves were fit to a single binding site model (Wiseman et al., 1989). […] A lower limit for the binding constant was determined by performing a titration in which the sample cell contained 30 μM EphB4 and the injection syringe contained a 1.45 mM solution of the peptide, producing a final ratio of peptide to EphB4 of 10:1. The data was fit assuming a stoichiometry of 1 and at least 60% saturation of binding at the final peptide concentration (Turnbull and Daranas, 2003).

In turn, `CC[C@H](C)[C@H](NC(=O)[C@@H]1CCCN1C(=O)CNC(=O)[C@H](CC(N)=O)NC(=O)[C@@H]1CCCN1C(=O)[C@H](CO)NC(=O)[C@H](Cc1ccccc1)NC(=O)[C@H](CC(C)C)NC(=O)[C@@H](N)Cc1ccc(O)cc1)C(=O)N[C@@H](C)C(=O)N[C@@H](CCCNC(=N)N)C(=O)N[C@@H](C)C(=O)N[C@@H](Cc1c[nH]c2ccccc12)C(=O)O` [YLFS-RAW] (H-YLFSPNGPIARAW-OH; N-terminus and C-terminus assumed) showed an IC50 in experiment [1] of 40 nM. In experiment [2] (1 mM CaCl2), this molecule showed a TΔS of -4.1 ± 0.4 kcal/mol, a ΔG of -9.7 ± 0.2 kcal/mol and a ΔH of -13.8 ± 0.5 kcal/mol.
In the same order, the values of `CC[C@H](C)[C@H](NC(=O)[C@@H]1CCCN1C(=O)CNC(=O)[C@H](CC(N)=O)NC(=O)[C@@H]1CCCN1C(=O)[C@H](CO)NC(=O)[C@H](Cc1ccccc1)NC(=O)[C@H](CC(C)C)NC(=O)[C@H](Cc1ccc(O)cc1)NC(=O)[C@@H](N)CC(N)=O)C(=O)N[C@@H](C)C(=O)N[C@@H](CCCNC(=N)N)C(=O)N[C@@H](C)C(=O)N[C@@H](Cc1c[nH]c2ccccc12)C(=O)O` [NYLF-RAW] (H-NYLFSPNGPIARAW-OH; N-terminus and C-terminus assumed) are 40 nM, -5.7 ± 0.1 kcal/mol, -9.8 ± 0.1 kcal/mol and -15.5 ± 0.1 kcal/mol.
In the case of `CC[C@H](C)[C@H](NC(=O)[C@@H]1CCCN1C(=O)CNC(=O)[C@H](CC(N)=O)NC(=O)[C@@H]1CCCN1C(=O)[C@H](CO)NC(=O)[C@H](Cc1ccccc1)NC(=O)[C@H](CC(C)C)NC(=O)[C@H](Cc1ccc(O)cc1)NC(=O)[C@H](CC(N)=O)NC(=O)[C@@H](N)[C@@H](C)O)C(=O)N[C@@H](C)C(=O)N[C@@H](CCCNC(=N)N)C(=O)N[C@@H](C)C(=O)N[C@@H](Cc1c[nH]c2ccccc12)C(=O)O` [TNYL-RAW] (H-TNYLFSPNGPIARAW-OH; N-terminus assumed), the IC50 in experiment [1] is ~15 nM and 15 nM. Also, in experiment [2] (1 mM CaCl2), the TΔS is -4.9 ± 0.2 kcal/mol; the ΔG is -9.8 ± 0.1 kcal/mol; the ΔH was -14.7 kcal/mol and -14.7 ± 0.2 kcal/mol. The same molecule showed an equilibrium dissociation constant (Kd) in experiment [2] (Kd, 1 mM CaCl2) of 70 nM.
Consider `CC[C@H](C)[C@H](NC(=O)[C@@H]1CCCN1C(=O)CNC(=O)[C@H](CC(N)=O)NC(=O)[C@@H]1CCCN1C(=O)[C@H](CO)NC(=O)[C@H](Cc1ccccc1)NC(=O)[C@@H](N)CC(C)C)C(=O)N[C@@H](C)C(=O)N[C@@H](CCCNC(=N)N)C(=O)N[C@@H](C)C(=O)N[C@@H](Cc1c[nH]c2ccccc12)C(=O)O` [LFSP-RAW] (H-LFSPNGPIARAW-OH; N-terminus and C-terminus assumed), for which, in experiment [1], the IC50 is over 10000 nM. In experiment [2] (1 mM CaCl2), this molecule came in with a TΔS of 2.1 ± 0.4 kcal/mol, a ΔG of -7.4 ± 0.1 kcal/mol and a ΔH of -5.3 ± 0.5 kcal/mol.
In the case of `CC[C@H](C)[C@H](NC(=O)[C@@H]1CCCN1C(=O)CNC(=O)[C@H](CC(N)=O)NC(=O)[C@@H]1CCCN1C(=O)[C@H](CO)NC(=O)[C@H](Cc1ccccc1)NC(=O)[C@H](CC(C)C)NC(=O)[C@H](Cc1ccc(O)cc1)NC(=O)[C@H](CC(N)=O)NC(=O)[C@@H](N)[C@@H](C)O)C(=O)N[C@@H](C)C(=O)O` [TNYL], the IC50 in experiment [1] was ~150000 nM and 150000 nM. Also, the “fold less potent than TNYL-RAW (IC50)” value in experiment [1] (ratio of IC50 values) was 10,000 fold. Besides, in experiment [2] (1 mM CaCl2), the ΔH is -9.6 ± 0.3 kcal/mol. The Kd in experiment [2] (1 mM CaCl2, read-out: Kd) is at least 140000 nM.

B1: ephrin-B2 Fc (Fc fusion, not shown: a dimerising Fc or GST; large carriers; small tags and cut ends)
chain: RSIVLEPIYWNSSNSKFLPGQGLVLYPQIGDKLDIICPKVDSKTVGQYEYYKVYMVDKDQADRCTIKKENTPLLNCARPDQDVKFTIKFQEFSPNLWGLEFQKNKDYYIISTSNGSLEGLDNQEGGVCQTRAMKILMKVGQDASSAGSARNHGPTRRPELEAGTNGRSSTTSPFVKPNPGSSTDGNSAGHSGNNLLGSEVALFA
Take B1: in experiment [3], the IC50 was 9 nM.
In experiment [4], YLFSPNGPIARAW [YLFS-RAW peptide (YLFSPNGPIARAW)] came in with a Kd of 80 nM, a TΔS of -4.1 kcal/mol, a ΔG of -9.7 kcal/mol and a ΔH of -13.8 kcal/mol.

B2: Human ephrin-B2 monomer (ligand)
chain: IVLEPIYWNSSNSKFLPGQGLVLYPQIGDKLDIICPKVDSKTVGQYEYYKVYMVDKDQADRCTIKKENTPLLNCAKPDQDIKFTIKFQEFSPNLWGLEFQKNKDYYIISTSNGSLEGLDNQEGGVCQTRAMKILMKVG
B2 registered an IC50 in experiment [3] of 10 nM.
In experiment [4], NYLFSPNGPIARAW [NYLF-RAW peptide (NYLFSPNGPIARAW)] showed a Kd of 65 nM, a TΔS of -5.7 kcal/mol, a ΔG of -9.8 kcal/mol and a ΔH of -15.5 kcal/mol.
As to TNYLFSPNGPIAGSGSK(Biotin) [TNYL-biotin peptide (TNYLFSPNGPIAGSGSK-biotin)], the half-inhibitory concentration (IC50) in experiment [3] turned out to be 50000 nM.
